The text below walks through data of patent publication US12492181B2, “Gem-disubstituted piperidine melanocortin subtype-2 receptor (MC2R) antagonists and uses thereof” (Crinetics Pharmaceuticals, Inc., priority 2019, dated 2025).

In this test the target is T1, hMC2 receptor (crude hMC2R membranes from CRE-bla-CHO-K1 cells stably expressing hMC2 receptor and hMRAP accessory protein) (Homo sapiens, UniProt Q01718).
T1 construct: crude membrane fractions
T1 sequence (Q01718 whole entry): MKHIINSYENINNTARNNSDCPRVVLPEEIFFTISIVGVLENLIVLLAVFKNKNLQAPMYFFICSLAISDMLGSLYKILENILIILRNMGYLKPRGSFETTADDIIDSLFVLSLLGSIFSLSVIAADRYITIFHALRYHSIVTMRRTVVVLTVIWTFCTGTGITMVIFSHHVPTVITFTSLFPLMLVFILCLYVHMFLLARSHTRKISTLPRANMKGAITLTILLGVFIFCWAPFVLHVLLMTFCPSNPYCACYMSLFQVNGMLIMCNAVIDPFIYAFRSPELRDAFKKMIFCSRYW
T1 sequence (Q8TCY5 whole entry partner): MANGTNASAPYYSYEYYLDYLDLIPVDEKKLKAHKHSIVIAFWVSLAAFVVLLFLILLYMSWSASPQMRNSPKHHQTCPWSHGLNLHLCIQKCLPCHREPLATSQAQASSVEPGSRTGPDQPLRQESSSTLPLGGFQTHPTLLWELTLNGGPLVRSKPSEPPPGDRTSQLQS
In words: hMC2 membrane binding assay ([125I]ACTH (1-39) Tyr23, SPA). The note with it: displacement of 0.2 nM [125I]ACTH (1-39) Tyr23 from hMC2R membranes, 1.5 hours at room temperature; read-out: MC2R binding potency. Summed up:
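Ki values come from non-linear regression of SPA scintillation counts, with compounds displacing [125I]ACTH(1-39) Tyr23. Membranes come from CRE-bla-CHO-K1 cells stably expressing hMC2 receptor together with hMRAP. They are preincubated with WGA-coated PVT SPA beads in 50 mM HEPES pH 7.4 with 0.20% BSA, Mg2+, Ca2+ and protease inhibitors.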
Take `CN1CC[C@@H](NC(=O)C2(c3ccc(-c4cccc(F)c4)nc3)CCN(c3ccc(C(F)(F)F)cc3C#N)CC2)C1` [Compound 1-64, 1-[2-cyano-4-(trifluoromethyl)phenyl]-4-[6-(3-fluorophenyl)pyridin-3-yl]-N-[(3R)-1-methylpyrrolidin-3-yl]piperidine-4-carboxamide]: the Ki is below 10 nM.
Turning to `COc1ncc(F)cc1-c1ncc(C2(C(=O)N[C@H]3CCN(C)C3)CCN(c3ccc(C(F)(F)F)cc3C#N)CC2)cc1F` [Compound 1-209, 1-[2-cyano-4-(trifluoromethyl)phenyl]-4-{3,5′-difluoro-2′-methoxy-[2,3′-bipyridin]-5-yl}-N-[(3S)-1-methylpyrrolidin-3-yl]piperidine-4-carboxamide], the Ki is below 10 nM.
Turning to `CCOc1ncccc1-c1cnc(C2(C(=O)N[C@@H]3CCN(C)C3)CCN(c3ccc(C(F)(F)F)cc3C#N)CC2)cn1` [Compound 1-51, 1-[2-cyano-4-(trifluoromethyl)phenyl]-4-[5-(2-ethoxypyridin-3-yl)pyrazin-2-yl]-N-[(3R)-1-methylpyrrolidin-3-yl]piperidine-4-carboxamide], the Ki is below 10 nM.
Take `CCOc1ccccc1-c1ccc(C2(NC(=O)CCN(C)C)CCN(c3ccc(C(F)(F)F)cc3C#N)CC2)cn1` [Compound 2-36, N-{1-[2-cyano-4-(trifluoromethyl)phenyl]-4-[6-(2-ethoxyphenyl)pyridin-3-yl]piperidin-4-yl}-3-(dimethylamino)propanamide]: the Ki is below 10 nM.
On to `CN1CC[C@@H](NC(=O)C2(c3ccc(-c4ccccc4CC#N)nc3)CCN(c3ccc(C(F)(F)F)cc3C#N)CC2)C1` [Compound 1-137, 1-[2-cyano-4-(trifluoromethyl)phenyl]-4-{6-[2-(cyanomethyl)phenyl]pyridin-3-yl}-N-[(3R)-1-methylpyrrolidin-3-yl]piperidine-4-carboxamide], for which the Ki lay in the range of 10 to 100 nM.
As for `CCOc1ncccc1-c1ccc(C2(C(=O)N[C@H]3CCN(C)C3)CCN(c3ccc(C(F)(F)F)nc3C#N)CC2)cn1` [Compound 1-26, 1-[2-cyano-6-(trifluoromethyl)pyridin-3-yl]-4-{2′-ethoxy-[2,3′-bipyridin]-5-yl}-N-[(3S)-1-methylpyrrolidin-3-yl]piperidine-4-carboxamide], the Ki was below 10 nM.
For `Cn1cccc1-c1ccc(C2(C(=O)N[C@H]3C[C@@H](N(C)C)C3)CCN(c3ccc(C(F)(F)F)cc3C#N)CC2)cn1` [Compound 1-239, 1-[2-cyano-4-(trifluoromethyl)phenyl]-4-[6-(1-methyl-1H-pyrrol-2-yl)pyridin-3-yl]-N-[(1S,3S)-3-(dimethylamino)cyclobutyl]piperidine-4-carboxamide], the Ki lay within 10 to 100 nM.
In the case of `CCOc1ncccc1-c1ncc(C2(C(=O)N[C@@H](C)CN(C)C)CCN(c3ccc(C(F)(F)F)cc3C#N)CC2)cc1F` [Compound 1-319, 1-[2-cyano-4-(trifluoromethyl)phenyl]-N-[(2S)-1-(dimethylamino)propan-2-yl]-4-{2′-ethoxy-3-fluoro-[2,3′-bipyridin]-5-yl}piperidine-4-carboxamide], the Ki is below 10 nM.
Regarding `CCOc1ncccc1-c1ccc(C2(C(=O)NC[C@@H](C)N(C)C)CCN(c3ccc(C(F)(F)F)cc3C#N)CC2)cn1` [Compound 1-333, 1-[2-cyano-4-(trifluoromethyl)phenyl]-N-[(2R)-2-(dimethylamino)propyl]-4-{2′-ethoxy-[2,3′-bipyridin]-5-yl}piperidine-4-carboxamide], the Ki was below 10 nM.
Consider `COc1ccccc1-c1ccc(C2(C(=O)NC3CN(C)C3)CCN(c3ccc(C(F)(F)F)cc3C#N)CC2)cn1` [Compound 1-94, 1-[2-cyano-4-(trifluoromethyl)phenyl]-4-[6-(2-methoxyphenyl)pyridin-3-yl]-N-(1-methylazetidin-3-yl)piperidine-4-carboxamide], for which the Ki is below 10 nM.
Take `CN1CC[C@@H](NC(=O)C2(c3ccc(-c4ccccc4C#N)nc3)CCN(c3ccc(C(F)(F)F)cc3C#N)CC2)C1` [Compound 1-78, 1-[2-cyano-4-(trifluoromethyl)phenyl]-4-[6-(2-cyanophenyl)pyridin-3-yl]-N-[(3R)-1-methylpyrrolidin-3-yl]piperidine-4-carboxamide]: the Ki is below 10 nM.
For the compound `COc1ccccc1-c1ccc(C2(C(=O)NC[C@@H]3C[C@@H](F)CN3C)CCN(c3ccc(C(F)(F)F)cc3C#N)CC2)cn1` [Compound 1-250, 1-[2-cyano-4-(trifluoromethyl)phenyl]-N-{[(2S,4R)-4-fluoro-1-methylpyrrolidin-2-yl]methyl}-4-[6-(2-methoxyphenyl)pyridin-3-yl]piperidine-4-carboxamide], the Ki is below 10 nM.
The figure for `CCc1ncccc1-c1ccc(C2(C(=O)N[C@H]3CCN(C)C3)CCN(c3ccc(C(F)(F)F)cc3Cl)CC2)cn1` [Compound 1-172, 1-[2-chloro-4-(trifluoromethyl)phenyl]-4-{2′-ethyl-[2,3′-bipyridin]-5-yl}-N-[(3S)-1-methylpyrrolidin-3-yl]piperidine-4-carboxamide] is below 10 nM.
Regarding `CCOc1ncccc1-c1ccc(C2(NC(=O)CCN)CCN(c3ccc(C(F)(F)F)cc3C#N)CC2)cc1` [Compound 2-3, 3-amino-N-{1-[2-cyano-4-(trifluoromethyl)phenyl]-4-[4-(2-ethoxypyridin-3-yl)phenyl]piperidin-4-yl}propanamide], the Ki was 10 to 100 nM.
In the case of `CN1CC[C@H](NC(=O)C2(c3ccc(-c4cccn4C)nn3)CCN(c3ccc(C(F)(F)F)cc3Cl)CC2)C1` [Compound 1-169, 1-[2-chloro-4-(trifluoromethyl)phenyl]-4-[6-(1-methyl-1H-pyrrol-2-yl)pyridazin-3-yl]-N-[(3S)-1-methylpyrrolidin-3-yl]piperidine-4-carboxamide], the Ki is below 10 nM.
With `COc1ccccc1-c1ccc(C2(NC(=O)NC3CN(C)C3)CCN(c3ccc(C(F)(F)F)cc3C#N)CC2)cn1` [Compound 2-59, 1-{1-[2-cyano-4-(trifluoromethyl)phenyl]-4-[6-(2-methoxyphenyl)pyridin-3-yl]piperidin-4-yl}-3-(1-methylazetidin-3-yl)urea], the Ki lay in the range of 10 to 100 nM.
For the compound `CCOc1ncccc1-c1ccc(C2(NC(=O)O[C@H]3CCN(C)C3)CCN(c3ccc(C(F)(F)F)cc3C#N)CC2)cc1` [Compound 2-13, (3S)-1-methylpyrrolidin-3-yl N-{1-[2-cyano-4-(trifluoromethyl)phenyl]-4-[4-(2-ethoxypyridin-3-yl)phenyl]piperidin-4-yl}carbamate], the Ki was 10 to 100 nM.
In the case of `CCc1ncccc1-c1ccc(C2(C(=O)N[C@@H]3CCN(C)C3)CCN(c3ccc(C(F)(F)F)cc3C#N)CC2)cn1` [Compound 1-118, 1-[2-cyano-4-(trifluoromethyl)phenyl]-4-{2′-ethyl-[2,3′-bipyridin]-5-yl}-N-[(3R)-1-methylpyrrolidin-3-yl]piperidine-4-carboxamide], the Ki is below 10 nM.
For `CCOc1ccccc1-c1ccc(C2(C(=O)N[C@H]3CCN(C)C3)CCN(c3c(F)cc(Cl)cc3C#N)CC2)cn1` [Compound 1-111, 1-(4-chloro-2-cyano-6-fluorophenyl)-4-[6-(2-ethoxyphenyl)pyridin-3-yl]-N-[(3S)-1-methylpyrrolidin-3-yl]piperidine-4-carboxamide], the Ki was below 10 nM.
